Paper PMC11979273, “A phase I study to evaluate the safety, tolerability, and pharmacokinetics of HEC113995PA·H2O, a novel dual-acting serotonergic antidepressant, in healthy subjects” (Frontiers in Pharmacology, 2025)
Where two headings read alike, the source gives them in different places.

Legend:
[1] = Acid-base ionization constants; format: physicochemical
5-HT transporter = 5-HT transporter (Homo sapiens, UniProt P31645); assay: In vitro affinity and antagonistic activity for the 5-HT transporter; format: binding; details: unpublished data
[2] = Food effect study, plasma pharmacokinetics; format: in vivo, human; details: for Cmax / MRT / half-life / Vd/F / Tmax: po, 20 mg; for Vd/F: read-out: Vz/F; for Tmax: N = 18, median (min, max)
From the text: A total of 18 healthy subjects of both genders, were assigned randomly to three sequences A, B, and C (n = 6). All subjects received HEC113995PA·H2O tablets, with a total of 3 times administered during the trial, once per cycle, and a washout period of ≥11 days. In sequence A, the order of administration was as follows: fasting, after a standard meal, and after a high-fat meal. In sequence B, the order of administration was after a standard meal, after a high-fat meal, and fasting. Sequence C subjects were administered in the following order: after a high-fat meal, fasting, and after a standard meal. During the fed periods, a single oral dose of HEC113995PA·H2O tablet 20 mg was administered within 30 min after consumption of a standard meal (total calories: approximately 600 kcal), or a high-fat, high-calorie meal (total calories: approximately 800 kcal–1,000 kcal, which derives about 150, 250, and 500–600 kcal from protein, carbohydrate, and fat, respectively). Serial blood samples were collected before and after each cycle for PK determination of plasma concentration and the evaluation of pharmacokinetic characteristics. Safety and tolerability were assessed on days 4 and 28.
In the first dose group of single ascending-dose study, PK blood samples were collected at 0.5 h before administration and 0.5, 1, 1.5, 2, 2.5, 3, 4, 5, 6, 8, 10, 12, 24, 36, 48, and 72 h after administration. In other SAD groups, MAD groups and food effect study, PK blood samples were collected at 0.5 h before administration, and 1, 2, 3, 4, 5, 6, 7, 8, 10, 12, 24, 48, 72, 96, 120 and 144 h after administration. Approximately 4 mL of venous blood was obtained from each collection and placed in a vacuum collection vessel containing K2EDTA anticoagulant. The blood was centrifuged and packed according to the instruction provided by the Biological Sample Detection and Analysis Unit. Briefly, all samples were centrifuged at 4°C, 1,500 g for 10 min within 0.5 h after blood collection. After centrifugation, the plasma was aliquoted into two cryogenic storage tubes. The first tube (Tube A) contained at least 0.8 mL of plasma for analytical testing, and the remaining plasma is allocated into the backup tube (Tube B). The plasma samples were stored at −80°C within 1 h after aliquoting for further analysis.
The concentration of HEC113995PA·H2O in human plasma samples (K2EDTA) was quantitatively analyzed using the LC-MS/MS method. Plasma samples (50 μL) were processed using protein precipitation with 5 μL deuterated internal standard (HEC124659) and 100 μL acetonitrile. The Shimadzu LCMS-8060 system coupled with a GL Sciences Inc. InertSustain AQ-C18 HP column (50 × 2.1 mm, 3 μm) achieved chromatographic separation through gradient elution using 0.04% TFA aqueous solution (pH 2.1) and acetonitrile at 0.4 mL/min. ESI-positive mode detection employed optimized parameters: 300°C interface temperature, 250°C DL temperature, 3 L/min nebulizer gas, and 400°C heating block temperature.
Using WinNonlin 7.0 for non-compartmental analysis (NCA), pharmacokinetic (PK) parameters were meticulously calculated based on the actual sampling times for plasma, urine, and fecal samples from each subject post-administration. These parameters encompassed a comprehensive range, including the area under the concentration–time curve (AUC), AUC from time zero (pre-dose) to the time of the last measurable concentration (AUC0-t), and AUC from time zero (pre-dose) to infinity (AUC0-∞). Additionally, maximum observed plasma concentration (Cmax), time to achieve maximum plasma concentration (Tmax), terminal elimination half-life (t1/2), elimination rate constant (Ke), apparent volume of distribution (Vd/F), clearance rate (CL/F), and mean residence time (MRT) were also determined. The AUC0-t and AUC0-∞ values were computed using the linear trapezoidal rule method. Tmax and Cmax were ascertained based on the actual observed data. […]

[3] = both sexes, human, plasma, single oral 20 mg, fasted, N = 18, mean (SD)
[4] = both sexes, human, plasma, single oral 20 mg, fed with high-fat, high-calorie meal, N = 18, mean (SD)
[5] = both sexes, human, plasma, single oral 20 mg, fed with standard meal, N = 18, mean (SD)
[6] = single 20 mg tablet, fed vs fasted

Sequence of 5-HT transporter (P31645 whole entry, species assumed): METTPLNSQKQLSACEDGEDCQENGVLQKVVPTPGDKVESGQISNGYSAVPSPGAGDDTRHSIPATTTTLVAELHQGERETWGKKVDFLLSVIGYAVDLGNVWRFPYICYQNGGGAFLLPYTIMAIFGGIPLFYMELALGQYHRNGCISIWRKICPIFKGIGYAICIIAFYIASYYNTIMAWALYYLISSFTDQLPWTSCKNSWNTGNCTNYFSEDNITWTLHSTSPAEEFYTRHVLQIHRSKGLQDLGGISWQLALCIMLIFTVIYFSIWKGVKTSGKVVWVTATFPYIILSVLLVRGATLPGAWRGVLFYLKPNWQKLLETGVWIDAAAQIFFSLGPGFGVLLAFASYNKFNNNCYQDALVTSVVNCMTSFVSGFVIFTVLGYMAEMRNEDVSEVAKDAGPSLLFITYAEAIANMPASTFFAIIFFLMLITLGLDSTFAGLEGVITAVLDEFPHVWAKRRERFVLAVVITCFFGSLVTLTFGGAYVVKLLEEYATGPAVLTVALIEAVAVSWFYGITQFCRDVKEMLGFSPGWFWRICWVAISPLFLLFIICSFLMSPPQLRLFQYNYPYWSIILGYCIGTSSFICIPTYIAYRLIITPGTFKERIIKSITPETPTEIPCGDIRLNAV

Cc1nc(-c2cnc(N3CCN(CCCc4c[nH]c5ccc(C#N)cc45)CC3)nc2)sc1C(N)=O [HEC113995PA·H2O]
pKa ([1]; read-out: acid-base ionization constant pKa1): 6.46 | pKa ([1]; read-out: acid-base ionization constant pKa2): 7.37 | affinity and antagonistic activity for the 5-HT transporter (5-HT transporter): at the nanomolar level | Cmax [2, 3]: 63 ng/mL | MRT [2, 3]: 38.3 h | half-life [2, 3]: 29 h | Vd/F [2, 3]: 447 L | Tmax ([2]; both sexes, human, plasma, single oral 20 mg, fasted): 4 h | Cmax [2, 4]: 117 ng/mL | MRT [2, 4]: 35.8 h | half-life [2, 4]: 30.5 h | Vd/F [2, 4]: 297 L | Tmax ([2]; both sexes, human, plasma, single oral 20 mg, fed with high-fat, high-calorie meal): 5 h | Cmax [2, 5]: 106 ng/mL | MRT [2, 5]: 35.4 h | half-life [2, 5]: 29.5 h | Vd/F [2, 5]: 298 L | Tmax ([2]; both sexes, human, plasma, single oral 20 mg, fed with standard meal): 5 h | AUC(0-inf) [2, 3]: 1960 ng·h/mL | AUC(0-t) [2, 3]: 1860 ng·h/mL | food effect, increases in exposure parameters ([2]; discussion summary): 52%–93 | food impact on Tmax and t1/2 ([2]; single 20 mg tablet): no significant impacts | increase of AUC0-∞ by food intake [2, 6]: 52.15∼58.20% | increase of Cmax by food intake [2, 6]: 77.09∼93.45% | increase of AUC0-∞, high-fat meal vs standard meal ([2]; single 20 mg tablet, P > 0.05): 3.97% | increase of Cmax, high-fat meal vs standard meal ([2]; single 20 mg tablet, P > 0.05): 9.24% | CL/F ([2]; single oral 20 mg, fasted, N = 18, mean (SD)): 10.8 (2.5) L/h | CL/F ([2]; single oral 20 mg, fed with high-fat, high-calorie meal, N = 18, mean (SD)): 6.8 (1.5) L/h | CL/F ([2]; single oral 20 mg, fed with standard meal, N = 18, mean (SD)): 7.1 (1.6) L/h
